Test results reported in patent US9169254B2, “Spiroimidazolone derivative” (Chugai Seiyaku Kabushiki Kaisha, priority 2009, dated 2015).

The compounds below were run against T1, human PTH1 receptor (Homo sapiens, UniProt Q03431) (assay: In vitro cAMP signal activity in HKRK-B7 cells (LLC-PK1 cells overexpressing the human PTH1 receptor)). Details: HKRK-B7 cells; compound at 1×10^−3 M; cAMP produced as percentage of that produced by hPTH(1-34) at 100 nM.
T1 sequence (Q03431 27-593): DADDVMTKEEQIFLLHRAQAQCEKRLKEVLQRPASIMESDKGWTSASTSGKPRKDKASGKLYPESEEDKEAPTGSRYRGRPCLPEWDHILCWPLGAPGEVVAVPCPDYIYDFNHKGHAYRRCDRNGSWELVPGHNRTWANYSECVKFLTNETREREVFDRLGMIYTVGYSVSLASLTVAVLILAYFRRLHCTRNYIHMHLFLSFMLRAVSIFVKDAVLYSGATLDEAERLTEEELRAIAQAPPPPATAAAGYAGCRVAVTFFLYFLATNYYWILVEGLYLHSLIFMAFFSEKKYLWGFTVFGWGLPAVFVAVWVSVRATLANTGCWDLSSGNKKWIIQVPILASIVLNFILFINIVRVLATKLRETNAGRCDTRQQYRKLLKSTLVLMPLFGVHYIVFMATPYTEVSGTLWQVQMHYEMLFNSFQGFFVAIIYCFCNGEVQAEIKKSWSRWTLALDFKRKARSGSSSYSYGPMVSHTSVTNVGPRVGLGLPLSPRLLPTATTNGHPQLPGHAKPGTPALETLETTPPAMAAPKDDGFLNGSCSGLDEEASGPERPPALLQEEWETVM
Type: cell-based

SMILES | cAMP production activity (%)
Cc1ccccc1CCS(=O)(=O)N1CCC2(CC1)N=C(C1CCCCC1)NC2=O [Compound 277, 2-cyclohexyl-8-(2-o-tolyl-ethanesulfonyl)-1,3,8-triaza-spiro[4.5]dec-1-en-4-one] | 38
Cc1cc(C(=O)N2CCN(S(=O)(=O)N(C)C)CC2)ccc1CCS(=O)(=O)N1CCC2(CC1)N=C(c1cccc(C(F)(F)F)c1)NC2=O [Compound 360, 4-(3-methyl-4-{2-[4-oxo-2-(3-trifluoromethyl-phenyl)-1,3,8-triaza-spiro[4.5]dec-1-ene-8-sulfonyl]-ethyl}-benzoyl)-piperazine-1-sulfonic acid dimethylamide] | 62
Cc1cc(N2C(=O)CNC2=O)ccc1/C=C/S(=O)(=O)N1CCC2(CC1)N=C(c1cccc(OC(F)(F)F)c1)NC2=O [Compound 618, 3-(3-methyl-4-{(E)-2-[4-oxo-2-(3-trifluoromethoxy-phenyl)-1,3,8-triaza-spiro[4.5]dec-1-ene-8-sulfonyl]-vinyl}-phenyl)-imidazolidine-2,4-dione] | 121
Cc1cc(N2C(=O)CNC2=O)ccc1/C=C/S(=O)(=O)N1CCC2(CC1)N=C(C1CCC(C(C)C)CC1)NC2=O (stereo not shown) [Compound 563, 3-(4-{(E)-2-[2-(4-Isopropyl-cyclohexyl)-4-oxo-1,3,8-triaza-spiro[4.5]dec-1-ene-8-sulfonyl]-vinyl}-3-methyl-phenyl)-imidazolidine-2,4-dione] | 69
Cc1cc(OC[C@H](O)CO)cc(C)c1/C=C/S(=O)(=O)N1CCC2(CC1)N=C(C1CCC(CCC(F)(F)F)CC1)NC2=O (stereo partly drawn) [Compound 697, 8-{(E)-2-[4-((R)-2,3-Dihydroxy-propoxy)-2,6-dimethyl-phenyl]-ethenesulfonyl}-2-[4-(3,3,3-trifluoro-propyl)-cyclohexyl]-1,3,8-triaza-spiro[4.5]dec-1-en-4-one] | 60
Cc1cc(N(C)C(N)=O)cc(C)c1CCS(=O)(=O)N1CCC2(CC1)N=C(C1CCC(CC(F)(F)F)CC1)NC2=O (stereo not shown) [Compound 936, 1-[3,5-Dimethyl-4-(2-{4-oxo-2-[4-(2,2,2-trifluoro-ethyl)-cyclohexyl]-1,3,8-triaza-spiro[4.5]dec-1-ene-8-sulfonyl}-ethyl)-phenyl]-1-methyl-urea] | 98
Cc1cc(OC[C@H](O)CO)cc(C)c1/C=C/S(=O)(=O)N1CCC2(CC1)N=C(C1CCCCC1)NC2=O [Compound 206, 2-cyclohexyl-8-{(E)-2-[4-((R)-2,3-dihydroxy-propoxy)-2,6-dimethyl-phenyl]-ethenesulfonyl}-1,3,8-triaza-spiro[4.5]dec-1-en-4-one] | 70
Cc1cc(N(C)C(N)=O)cc(C)c1/C=C/[S@TB3](=O)(=O)N1CCC2(CC1)N=C(c1cccc(CCCCCC(F)(F)F)c1)NC2=O [Compound 1116, 1-[3,5-dimethyl-4-((E)-2-{4-oxo-2-[3-(6,6,6-trifluoro-hexyl)-phenyl]-1,3,8-triaza-spiro[4.5]dec-1-ene-8-sulfonyl}-vinyl)-phenyl]-1-methyl-urea] | 106
Cc1cc(C(=O)N2CCC(O)(CO)CC2)cc(C)c1/C=C/S(=O)(=O)N1CCC2(CC1)N=C(c1cccc(C(F)(F)F)c1)NC2=O [Compound 386, 8-{(E)-2-[4-(4-hydroxy-4-hydroxymethyl-piperidine-1-carbonyl)-2,6-dimethyl-phenyl]-ethenesulfonyl}-2-(3-trifluoromethyl-phenyl)-1,3,8-triaza-spiro[4.5]dec-1-en-4-one] | 86
O=C1NC(C2CCCCC2)=NC12CCN(S(=O)(=O)/C=C/c1cccc3[nH]c(=O)oc13)CC2 [Compound 188, 2-cyclohexyl-8-[(E)-2-(2-oxo-2,3-dihydro-benzoxazol-7-yl)-ethenesulfonyl]-1,3,8-triaza-spiro[4.5]dec-1-en-4-one] | 70
